Results on 22 molecules are retold here after patent publication US11091460B2, “Syk inhibitor and use method therefor” (CHIA TAI TIANQING PHARMACEUTICAL GROUP CO., LTD., priority 2017, dated 2021).

Like-named read-outs stand apart in the source and are kept apart here.

One assay deals with T1, SYK kinase (Homo sapiens, UniProt P43405).
T1 construct: purchased Invitrogen PV3857
Nature of the assay: In vitro test of the inhibition effect on SYK kinase (HTRF). Format: biochemical. As to conditions: tyrosine kinase 0.0156 ng/μL, substrate 0.2 uM, ATP 2 uM, 23° C. 1 hour, read-out: Inhibit SYK kinase IC50. The protocol:
Experimental Example 1: In Vitro Test of the Inhibition Effect of the Example Compounds on SYK Kinase
Adenosine triphosphate concentration was controlled at 2 uM. • 4) Loaded with a Multidrop automatic dispenser, and a mixture of tyrosinase solution and tyrosine kinase-substrate-biotin/adenosine triphosphate was added in an amount of 5 ul per well, and incubated at 23° C. for 1 hour. • c) Detection phase: • 1) Added 13.33 mL of ethylenediaminetetraacetic acid solution to the Detection Buffer in the kit, added the specified amount of […] (Eu)-labeled antibody and streptavidin XL-665, and prepared the detection solution. • 2) Loaded with a Multidrop automatic dispenser, and 10 uL of the detection solution per well, incubated at 23° C. for 1 hour. It terminated the reaction of the enzyme and substrate mixture. • 3) Reading after centrifugation on a multi-function microplate reader, • d) Data Analysis: Analyzed the data with XL-Fit, and calculated the IC50 value of the compound.

The test system of another assay is AKT phosphorylation. Kind of assay: In vitro test of the inhibition effect on AKT phosphorylation (ELISA, Ramos cells). Format: cell-based. How it is done:
Experimental Example 2: In Vitro Test of the Inhibition Effect of the Example Compounds on AKT Phosphorylation
• 2.1 Experimental Purpose: Intracellular protein kinase AKT phosphorylation detected by experiment was measured by enzyme-linked immunosorbent assay (ELISA), and the inhibition of the compound on protein kinase AKT phosphorylation was evaluated by an index of the half-cell inhibition concentration (IC50) value of the compound. • 2.2 Experimental Materials: • Cell line: Ramos cell line • Cell culture medium (RPMI1640, Invitrogen #22400-105; 10% serum Gibco #10099-141; L-glutamine 1×, Gibco #25030-081) • Experimental medium (without serum, RPM11640, Invitrogen #22400-105; L-glutamine 1×, Gibco #25030) • Lysis buffer (trishydroxymethylaminomethane hydrochloride, Invitrogen15567-1000 ml; sodium chloride, domestic; sodium deoxycholate, Sigma30970-25 G; polyethylene glycol octylphenyl ether, SigmaT9284-100 ml; dodecane sodium sulfonate, SigmaL3771; ethylenediaminetetraacetic acid, Invitrogen15575-038-100 ml; ultrapure water, MilliQ) • Protease inhibitor (Roche, 4693159001-30/BOX) • Phosphatase inhibitor mixture 2 (Sigma, P5726-5 ML) • Phosphatase inhibitor mixture 3 (Sigma, P0044-5 ML) • Goat Anti-Human immunoglobulin M (F(ab′)2 Goat Anti-Human IgM) (Jackson Immuno Research-109-006-129) • Phosphorylated AKT assay kit (Phospho-AKT 1/2/3 (ser473)) (TGR Bioscience, EKT002) • 10× Hank's balanced salt solution (Gibco #14065-056) • 96-well cell plate (Greiner #655090) • Compound V-well dilution plate (Axygen #WITP02280) • CO2 incubator (Thermo #371) • Centrifuge (Eppendorf #581 OR) • Vi-cell cell counter (Beckman Coulter) • Pipette (Eppendorf) • Pipette (Greiner) • Pipetting gun (Eppendorf) • Multi-purpose microplate reader (Envision Reader) • 2.3 Experimental procedures and methods: • a) Cell Seeding (Ramos Cells) • 1) The medium was preheated in a 37° C. water bath. Suspended cells and their culture solution were aspirated, centrifuged at 1000 rpm for 5 minutes. • 2) Aspirated the cell culture medium, added 10 mL of pre-warmed medium to the centrifuge tube, blew off the resuspended cells, pipette 1 mL of the cell suspension, and counted with Vi-cell; • 3) The Ramos cells were diluted with a medium to a density of 5×10^6/mL, and the diluted cells were added to a 96-well cell culture plate (100 μL/well) using a lance. Placed the cell plates in a 37° C., 5% CO2 incubator for overnight. • b) Cell starvation: • 1) After cultured the inoculation cells for overnight, centrifuged at 1000 rpm for 5 minutes on the next day, aspirated the original medium by a lance, added serum-free experimental medium, placed the cell plates in a 37° C., 5% CO2 incubator, and starved for overnight. • c) Compound preparation and dosing: • 1) The compound was diluted with dimethyl sulfoxide to give an initial concentration of 5 mM. A triple gradient dilution was done with compound V dilution plate to make 10 concentration points. • 2) Took another new compound V-well dilution plate, added 198 ul of serum-free experimental medium to each well, and then added 2 ul of the diluted compound above to each well, and mixed with a lance. […]

[1] abbreviates: Homo sapiens, Ramos, Ramos cell line, compound 1 hour, goat anti-human IgM 10 ug/ml for 10 minutes, Phospho-AKT 1/2/3 (ser473) ELISA, read-out: Inhibit AKT phosphorylation IC50.
[2] abbreviates: Homo sapiens, Ramos, read-out: Inhibit AKT phosphorylation IC50 (nM).

`Cn1c(=O)c(Nc2ccc(N3CCOCC3)cn2)cc2cc(-c3cc[nH]n3)ccc21` [Example 2, 1-Methyl-3-((5-morpholinepyridin-2-yl)amino)-6-(1H-pyrazol-3-yl)quinoline-2(1H)-one]: the IC50 at SYK kinase came to 204 nM; with AKT phosphorylation (Ramos cell line, compound 1 hour, goat anti-human IgM 10 ug/ml for 10 minutes, Phospho-AKT 1/2/3 (ser473) ELISA, read-out: Inhibit AKT phosphorylation IC50), 750 nM.
Consider `Cn1c(=O)c(Nc2ccc(C3CCOCC3)cn2)cc2cc(-c3cc[nH]n3)ccc21` [Example 3], for which the IC50 at SYK kinase was determined as 40.7 nM; with AKT phosphorylation (setting [1]), 323 nM.
For `Cn1c(=O)c(Nc2ccc(N3CCN(C4COC4)CC3)cn2)cc2cc(-c3cc[nH]n3)ccc21` [Example 4, 1-Methyl-3-[[5-(4-(oxetan-3-yl)piperazin-1-yl]pyridin-2-yl]amino]-6-(1H-pyrazol-3-yl)quinoline-2(1H)-one] the same measures were 34.3 nM and 585 nM.
`Cn1c(=O)c(Nc2ccc(N3CCOCC3)cn2)cc2cc(-c3cc[nH]n3)c(F)cc21` [Example 6, 7-Fluoro-1-methyl-3-((5-morpholinepyridin-2-yl)amino)-6-(1H-pyrazol-3-yl)quinoline-2(1H)-one]: the figures for the half-inhibitory concentration (IC50) at SYK kinase and in the assay on AKT phosphorylation (setting [2]) were 21.1 nM and 446 nM, respectively.
Take `Cn1c(=O)c(Nc2ccc(N3CCOCC3)cn2)cc2c(Cl)c(-c3cc[nH]n3)ccc21` [Example 7, 5-Chloro-1-methyl-3-((5-morpholinepyridin-2-yl)amino)-6-(1H-pyrazol-3-yl)quinoline-2(1H)-one]: the IC50 at SYK kinase amounted to 10.3 nM; in the assay on AKT phosphorylation (setting [1]), 211 nM.
For `Cn1c(=O)c(Nc2ccc(N3CCOCC3)cn2)cc2c(F)c(-c3cc[nH]n3)c(F)cc21` [Example 8, 5,7-Difluoro-1-methyl-3-((5-morpholinopyridin-2-yl)amino)-6-(1H-pyrazol-3-yl)quinoline-2(1H)-one] the same measures were 54.6 nM and 188 nM.
Taken in the same sequence, the figures for `Cn1c(=O)c(Nc2ccc(N3CCN(C4COC4)CC3)cn2)cc2c(F)c(-c3cc[nH]n3)ccc21` [Example 9, 5-Fluoro-1-methyl-3-((5-(4-(oxetan-3-yl)piperazin-1-yl)pyridin-2-yl)amino)-6-(1H-pyrazol-3-yl)quinoline-2(1H)-one] were 12 nM and 170 nM.
For `Cn1c(=O)c(Nc2ccc(N3CCC(O)(C(F)(F)F)CC3)cn2)cc2c(F)c(-c3cc[nH]n3)ccc21` [Example 10, 5-Fluoro-3-[[5-[4-hydroxy-4-(trifluoromethyl)piperidin-1-yl]pyridin-2-yl]amino]-1-methyl-6-(1H-pyrazol-3-yl)quinoline-2(1H)-one] the same measures were 30 nM and 343 nM.
`Cn1c(=O)c(Nc2ccc(N3CCOCC3)cn2)cc2c(F)c(-c3cc[nH]n3)ccc21` [Example 11, 5-Fluoro-1-methyl-3-((5-morpholinopyridin-2-yl)amino)-6-(1H-pyrazol-3-yl)quinoline-2(1H)-one]: the IC50 was 15 nM at SYK kinase and 230 nM in the assay with AKT phosphorylation (setting [1]).
For `Cn1c(=O)c(Nc2ccc(N3CCC4(CC3)COC4)cn2)cc2c(F)c(-c3cc[nH]n3)ccc21` [Example 12, 5-Fluoro-1-methyl-3-[[5-(2-oxazole-7-azaspiro[3.5]nonane-7-yl)pyridin-2-yl]amino]-6-(1H-pyrazol-3)quinoline-2(1H)-one] the same measures were 114 nM and 750 nM.
Taken in the same sequence, the figures for `Cn1c(=O)c(Nc2ccccn2)cc2c(F)c(-c3cc[nH]n3)ccc21` [Example 15, 5-Fluoro-1-methyl-6-(1H-pyrazol-3-yl)-3-(pyridin-2-amine)-quinoline-2(1H)-one] were 101 nM and 425 nM.
Taken in the same sequence, the figures for `Cn1c(=O)c(Nc2ccc(N)cn2)cc2c(F)c(-c3cc[nH]n3)ccc21` [Example 16, 3-((5-Aminopyridin-2-yl)amino)-5-fluoro-1-methyl-6-(1H-pyrazol-3-yl)quinoline-2(1H)-one] were 47.9 nM and 197 nM.
For the molecule `Cn1c(=O)c(Nc2ccc(N3CCCC(C)(C(=O)O)C3)cn2)cc2c(F)c(-c3cc[nH]n3)ccc21` (centres unmarked) [Example 17, 1-(6-((5-Fluoro-1-methyl-2-oxo-6-(1H-pyrazol-3-yl)-1,2-dihydroquinolin-3-yl)amine)pyridine-3-yl)-3-pipecoline-3-carboxylic acid], the IC50 was 24.9 nM on SYK kinase and 255 nM in the assay on AKT phosphorylation (setting [1]).
For `Cn1c(=O)c(Nc2ccc(N3CCC[C@@H](C(=O)O)C3)cn2)cc2c(F)c(-c3cc[nH]n3)ccc21` [Example 18, (3R)-1-[6-[[5-fluoro-1-methyl-2-oxa-6-(1H-pyrazol-3-yl)-1,2-dihydroquinolin-3-yl)amino]pyridin-3-yl]piperidine-3-carboxylic acid] the same measures were 26 nM and 844 nM.
Taken in the same sequence, the figures for `Cn1c(=O)c(Nc2ccc(N3CCC[C@H](C(=O)O)C3)cn2)cc2c(F)c(-c3cc[nH]n3)ccc21` [Example 19, (3S)-1-[6-[[5-fluoro-1-methyl-2-oxa-6-(1H-pyrazol-3-yl)-1,2-dihydroquinolin-3-yl)amine]pyridin-3-yl]piperidine-3-carboxylic acid] were 14.3 nM and 388 nM.
For `Cn1c(=O)c(Nc2ccc(C(C)(C)O)cn2)cc2c(F)c(-c3cc[nH]n3)ccc21` [Example 20] the same measures were 12.7 nM and 63 nM.
Turning to `Cn1c(=O)c(Nc2ccc(C3(O)CCC3)cn2)cc2c(F)c(-c3cc[nH]n3)ccc21` [Example 21], the IC50 at SYK kinase is 22 nM; with AKT phosphorylation (setting [2]) it was 200 nM.
With `Cn1c(=O)c(Nc2ccc(C3(F)COC3)cn2)cc2c(F)c(-c3cc[nH]n3)ccc21` [Example 23, 5-Fluoro-3-[[5-(3-fluorooxetan-3-yl)pyridin-2-yl]amino]-1-methyl-6-(1H-pyrazol-3-yl)quinoline-2(1H)-one], the IC50 on SYK kinase came out at 26.9 nM; in the assay on AKT phosphorylation (setting [1]), 169 nM.
Taken in the same sequence, the figures for `Cn1c(=O)c(Nc2ccc(N3CCOCC3)cc2)nc2ccc(-c3cn[nH]c3)cc21` [Example 26, 1-Methyl-3-((4-morpholinephenyl)amino)-7-(1H-pyrazol-4-yl)quinoxaline-2(1H)-one] were 4.2 nM and 50 nM.
For the molecule `Cc1[nH]ncc1-c1ccc2nc(Nc3ccc(N4CCOCC4)cc3)c(=O)n(C)c2c1` [Example 29, 1-Methyl-7-(5-methyl-1H-pyrazol-4-yl)-3-((4-morpholinephenyl)amino)quinoxaline-2(1H)-one], the figures for the IC50 at SYK kinase and in the assay with AKT phosphorylation (setting [1]) were 61 nM and 233 nM, respectively.
Taken in the same sequence, the figures for `Cn1c(=O)c(Nc2ccc(N3CCOCC3)cc2)nc2ccc(-c3c[nH]cn3)cc21` [Example 31, 7-(1H-imidazol-4-yl)-1-methyl-3-((4-morpholinephenyl)amino)quinoxaline-2(1H)-one] were 81 nM and 132 nM.
As to `CN1CCN(c2ccc(Nc3nc4ccc(-c5cn[nH]c5)cc4n(C)c3=O)cc2)CC1` [Example 33, 1-Methyl-3((4-(4-methylpiperazin-1-yl)phenyl)amino)-7-(1H-pyrazol-4-yl) quinoxaline-2(1H)-one], the IC50 at SYK kinase worked out at 3.2 nM; with AKT phosphorylation (setting [2]), 226 nM.
